Reference: article PMC7848139, “Novel Hybrid CHC from β-carboline and N-Hydroxyacrylamide Overcomes Drug-Resistant Hepatocellular Carcinoma by Promoting Apoptosis, DNA Damage, and Cell Cycle Arrest” (Frontiers in Pharmacology, 2021)

Experiments:
recombinant human HDAC3 = target: T1, recombinant human HDAC3 (Homo sapiens, UniProt O15379); assay: HDAC fluorimetric assay, HDAC3; format: biochemical; conditions: mean ± SD of three experiments
T1 construct: purchased Enzo Life Sciences Inc
Description: (§1) The assay was conducted according to the HDAC1/3/6/8 assay kit (Enzo Life Sciences Inc.). Each different concentrations of evaluated compounds were, respectively, incubated with each HDAC1/3/6/8 at coupling of corresponding HDAC substrate (Boc-Lys (Ac)-AMC) at 37°C for 60 min. Then stopping the reaction under adding lysine developer.

Bel7402/5-FU = assay: MTT antiproliferative assay, Bel7402/5-FU; format: cell-based; conditions: Homo sapiens, drug-resistant HCC cells, 72 h, mean ± SD of three experiments, read-out: In vitro antiproliferative activity (IC50) Bel7402/5-FU
Description: (§2) Briefly, appropriate cells (1 × 10^4 cells/mL) were placed into 96-well plates in 100 μL of DMEM medium overnight. Then adding 100 μL of evaluated compounds into individual well for 72 h while 0.1% DMSO aqueous solution was treated as the negative control. After incubation with 30 μl MTT (5 mg/mL) for 4 h in all well, and ELISA plate reader measured absorbance of each well at 570 nm. Then calculating cytotoxicity effect of evaluated compounds through the formula: Cell inhibitory percentage (%) = (1−OD of treatment group/OD of control) × 100%.

recombinant human HDAC8 = target: T2, recombinant human HDAC8 (Homo sapiens, UniProt Q9BY41); assay: HDAC fluorimetric assay, HDAC8; format: biochemical; conditions: mean ± SD of three experiments
T2 construct: purchased Enzo Life Sciences Inc
T2 sequence (Q9BY41 1-377): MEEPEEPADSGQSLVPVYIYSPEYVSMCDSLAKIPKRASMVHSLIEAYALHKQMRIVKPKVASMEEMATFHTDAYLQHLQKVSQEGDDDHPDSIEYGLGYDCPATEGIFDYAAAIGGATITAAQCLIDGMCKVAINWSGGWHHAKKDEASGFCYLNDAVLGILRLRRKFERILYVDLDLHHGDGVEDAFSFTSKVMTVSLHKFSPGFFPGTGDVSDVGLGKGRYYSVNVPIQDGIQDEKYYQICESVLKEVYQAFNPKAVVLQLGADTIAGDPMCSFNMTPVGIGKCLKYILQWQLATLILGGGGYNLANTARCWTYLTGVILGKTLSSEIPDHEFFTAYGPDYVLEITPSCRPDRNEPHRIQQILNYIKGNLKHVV
Description: as §1

recombinant human HDAC6 = target: T3, recombinant human HDAC6 (Homo sapiens, UniProt Q9UBN7); assay: HDAC fluorimetric assay, HDAC6; format: biochemical
T3 construct: purchased Enzo Life Sciences Inc
T3 sequence (Q9UBN7 1-1215): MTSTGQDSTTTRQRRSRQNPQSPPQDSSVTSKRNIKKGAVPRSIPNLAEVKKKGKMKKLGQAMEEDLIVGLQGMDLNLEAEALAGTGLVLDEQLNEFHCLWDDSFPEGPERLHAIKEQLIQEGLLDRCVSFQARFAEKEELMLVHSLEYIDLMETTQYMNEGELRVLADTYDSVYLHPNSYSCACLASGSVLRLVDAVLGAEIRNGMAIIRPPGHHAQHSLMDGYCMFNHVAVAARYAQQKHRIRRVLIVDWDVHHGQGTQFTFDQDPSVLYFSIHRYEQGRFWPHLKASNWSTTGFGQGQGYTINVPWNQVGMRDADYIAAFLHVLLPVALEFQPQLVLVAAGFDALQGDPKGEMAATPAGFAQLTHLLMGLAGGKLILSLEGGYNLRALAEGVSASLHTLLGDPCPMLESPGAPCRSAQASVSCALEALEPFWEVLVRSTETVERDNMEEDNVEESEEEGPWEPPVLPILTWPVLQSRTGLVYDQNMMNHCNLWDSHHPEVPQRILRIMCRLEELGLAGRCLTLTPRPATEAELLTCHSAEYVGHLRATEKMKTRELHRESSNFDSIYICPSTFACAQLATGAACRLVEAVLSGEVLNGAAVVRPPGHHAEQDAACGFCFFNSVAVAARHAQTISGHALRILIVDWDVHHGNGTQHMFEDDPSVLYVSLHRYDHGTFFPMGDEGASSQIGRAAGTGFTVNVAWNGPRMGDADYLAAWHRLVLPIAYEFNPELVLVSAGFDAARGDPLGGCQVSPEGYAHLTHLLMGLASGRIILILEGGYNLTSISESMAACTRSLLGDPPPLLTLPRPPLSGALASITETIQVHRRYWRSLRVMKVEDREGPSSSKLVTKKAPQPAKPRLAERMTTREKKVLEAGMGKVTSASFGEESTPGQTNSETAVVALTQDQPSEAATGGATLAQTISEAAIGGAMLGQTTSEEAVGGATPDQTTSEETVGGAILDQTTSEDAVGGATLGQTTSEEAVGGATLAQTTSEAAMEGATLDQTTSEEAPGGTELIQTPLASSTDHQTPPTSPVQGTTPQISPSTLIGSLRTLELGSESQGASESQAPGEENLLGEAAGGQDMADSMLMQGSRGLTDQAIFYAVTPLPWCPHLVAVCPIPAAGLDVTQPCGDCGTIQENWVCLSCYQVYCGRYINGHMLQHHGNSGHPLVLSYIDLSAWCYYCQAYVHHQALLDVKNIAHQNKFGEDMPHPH
Description: as §1

LO2 cells = assay: MTT assay on normal liver LO2 cells; format: cell-based, human; conditions: increasing dosages, 72 h
Description: Human cancer cell lines (SMMC-7721, Bel7402, Huh7, HCT116), drug-resistant cell lines (Bel7402/5-FU), and human normal hepatocyte cells (LO2) were purchased from Institute of Cell Biology (Shanghai, China).
as §2, with “100%. GraphPadPrism (4.03) calculated data to afford Corresponding IC50 values.” for “100%.”
FIGURE 3 Inhibition potency of CHC against the proliferation on Bel7402, Bel7402/5-FU, and LO2 cells. Cells were treated with CHC at the indicated concentrations for 72 h. MTT assays were performed to evaluate cell proliferation. The inhibition (%) rate (mean ± SD) were from three separate experiments.

T1 sequence (O15379 whole entry): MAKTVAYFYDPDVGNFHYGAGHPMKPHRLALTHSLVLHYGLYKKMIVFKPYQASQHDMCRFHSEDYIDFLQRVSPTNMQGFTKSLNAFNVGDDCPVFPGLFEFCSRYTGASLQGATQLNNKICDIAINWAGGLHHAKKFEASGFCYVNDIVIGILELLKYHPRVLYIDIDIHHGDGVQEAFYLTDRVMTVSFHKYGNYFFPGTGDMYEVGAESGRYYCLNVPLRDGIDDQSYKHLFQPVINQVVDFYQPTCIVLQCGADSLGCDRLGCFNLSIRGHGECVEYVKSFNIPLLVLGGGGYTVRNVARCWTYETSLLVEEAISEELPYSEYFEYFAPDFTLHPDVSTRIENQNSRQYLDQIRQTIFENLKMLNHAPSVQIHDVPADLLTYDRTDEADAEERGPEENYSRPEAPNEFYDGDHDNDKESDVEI
T1 sequence (O75376 395-489 partner limits assumed): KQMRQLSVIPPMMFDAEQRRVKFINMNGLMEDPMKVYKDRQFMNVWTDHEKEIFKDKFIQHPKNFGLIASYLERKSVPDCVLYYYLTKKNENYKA

What does the source list for `CN(C)c1ccc(-c2nc(C(=O)NCc3ccc(/C=C/C(=O)NO)cc3)cc3c2[nH]c2ccccc23)cc1` [CHC, (E)-N-(4-(3-(hydroxyamino)-3-oxoprop-1-en-1-yl)benzyl)-1-(4-dimethylaminophenyl)-9H-pyrido [3,4-b]indole-3-carboxamide]?
IC50 (recombinant human HDAC3): 134 ± 16 nM; IC50 (Bel7402/5-FU): 2170 ± 350 nM; IC50 (recombinant human HDAC8): > 1000 nM; IC50 on HDAC6 relative to SAHA (recombinant human HDAC6; compared with SAHA): eight-fold lower; IC50 (recombinant human HDAC6; mean ± SD of three experiments): 7.6 ± 1 nM; fold lower IC50 on HDAC6 than on HDAC3 (recombinant human HDAC6; selectivity HDAC6 over HDAC3): 18 fold; cytotoxicity on normal liver LO2 cells growth (LO2 cells): minimal cytotoxicity effects
